Results reported in US20260234165A1, “MACROCYCLIC COMPOUNDS, PREPARATION METHOD THEREFOR, AND USE THEREOF” (GENFLEET THERAPEUTICS (SHANGHAI) INC., priority 2004, published 2026).

These compounds were tested on p-ERK in NCI-H441 cells (KRAS G12V mutation) (assay: Cell p-ERK assay (HTRF) in NCI-H441 cells). Conditions: Homo sapiens, NCI-H441, 3 h, NCI-H441 cells, 3 h compound incubation, HTRF p-ERK T202/Y204; read-out: H441 p-ERK IC50.
Format: cell-based, human
Procedure: AsPC-1 cells were purchased from ATCC, Cat. No. CRL-1682: NCI-H441 cells were purchased from ATCC, Cat. No. HTB-174: RPMI-1640 medium was purchased from Gibco, Cat. No. I1875-093: FBS was purchased from Gibco, Cat. No. 10099-141C: penicillin/streptomycin double-antibiotic solution (PS) was purchased from Gibco, Cat. No. 15140-122: trypsin (containing EDTA) was purchased from Gibco, Cat. No. 25200-072; DMSO was purchased from VWRAMRESCO, Cat. No. 0231-500ML; 96-well cell culture plates were purchased from Corning, Cat. No. 3599: white-bottomed, opaque 96-well plates were purchased from Cisbio, Cat. No. 66PL96025; Advance ERK phospho-T202/Y204 kit was purchased from Cisbio, Cat. No. 64AERPEH; cell counter was purchased from CHEMOMETEC, model: NC-200; microplate reader was purchased from PerkinElmer, model: EnVision.
AsPC-1, a human pancreatic cancer cell strain endogenously containing a KRAS^G12D mutation, was cultured in a complete medium containing RPMI-1640+10% FBS+1% PS. NCI-H441, a human non-small cell lung cancer cell strain endogenously containing a KRAS^G12V mutation, was cultured in a complete medium containing RPMI-1640+10% FBS+1% PS.
The cells were digested with trypsin (containing EDTA), collected in their corresponding complete media, and counted. The density of the cell suspensions was adjusted with their corresponding complete media, and 10000 AsPC-1 cells or 20000 NCI-H441 cells per well were seeded into a 96-well cell culture plate, with the volume of the medium in each well being 80 μL.
The cell culture plate was incubated in an incubator at 37° C. with 5% CO2 overnight. A series of 3.16-fold gradient dilutions of a 1000- compound stock solution were prepared with DMSO, and then diluted 200-fold with the complete medium described above to give 5′ compound stock solutions. On the day after cell seeding, 20 μL of the 5× compound stock solution was added to each cell culture well. As a result, the final concentration of the compound in the cell culture well became 1×, and the DMSO content in the well was 0.1%. In addition to the compound-treated wells described above, cell-containing DMSO control wells were also set. A complete medium containing 0.5% DMSO was added at 20 μL/well. After the mixture was well mixed, the culture plate was incubated in the incubator at 37° C. with 5% CO2 for another 3 h. The medium was then removed from the culture wells, and 50 μL of cell lysis buffer (from Advance ERK phospho-T202,Y204 kit) was added to each well. The mixture was well mixed and incubated for 30 min. Then, 16 μL of the mixture was transferred to a white-bottomed, opaque 96-well assay plate, and separately, 16 μL of cell lysis buffer was added to additional wells (serving as blank wells) in the assay plate. After the transfer was completed, 4 μL of p-ERK HTRF antibody mixture (from Advance ERK phospho-T202/Y204 kit) was added to each well of the assay plate, followed by a 4-hour incubation. The HTRF signal values (RLU) were then measured using a microplate reader, and the inhibition rate of the compound against p-ERK levels was calculated as follows: IR (%)=(RLUDMSO−RLUcompound)/(RLUDMSO−RLUblank)×100%, where RLUDMSO is the average HTRF signal value from the DMSO control well samples, RLUblank is the average HTRF signal value from the blank well samples, and RLUcompound is the HTRF signal value from the compound-treated well samples. Using an XLfit software, the IR (%) values were plotted against the logarithm of the compound concentrations, and the dose-response curves were fitted using the four-parameter method to calculate the IC50 values.

Compound | IC50
CCn1c(-c2cc(N3CCN(CCS(C)(=O)=O)CC3)cnc2[C@H](C)OC)c2c3cc(ccc31)-c1csc(n1)C[C@H](NC(=O)[C@H]1[C@H](C)[C@@H]1C)C(=O)N1CCC[C@H](N1)C(=O)OCC1(CC1)C2 (atropisomer, axis not shown; (Sa)) [Compound Z377, (1r,2R,3S)—N-((3′S,4′S,Z)-1′-ethyl-(Sa)-2′-(2-((S)-1-methoxyethyl)-5-(4-(2-(methylsulfonyl)ethyl)piperazin-1-yl)pyridin-3-yl)-5′,7′-dioxospiro[cyclopropane-1,10′-8-oxa-2(4,2)-thiazola-1(5,3)-indola-6(1,3)-pyridazinacycloundecaphan]-4′-yl)-2,3-dimethylcyclopropane-1-carboxamide] | 87.8 nM
CCn1c(-c2cc(C3(C(=O)N4CCN(C)CC4)CC3)cnc2[C@H](C)OC)c2c3cc(ccc31)-c1csc(n1)C[C@H](NC(=O)[C@H]1[C@H](C)[C@@H]1C)C(=O)N1CCC[C@H](N1)C(=O)OCC1(CC1)C2 [Compound Z347, (1r,2R,3b)-N-((3′S,4′S,Z)-1′-ethyl-2′-(2-(1-methoxyethyl)-5-(1-(4-methylpiperazine-1-carbonyl)cyclopropyl)pyridin-3-yl)-5′,7′-dioxospiro[cyclopropane-1,10′-8-oxa-2(4,2)-thiazola-1(5,3)-indola-6(1,3)-pyridazinacycloundecaphan]-4-yl)-2,3-dimethylcyclopropane-1-carboxamide] | 152 nM
CCn1c(-c2cc(N3CCN(c4ccc(C)cc4)CC3)cnc2[C@H](C)OC)c2c3cc(ccc31)-c1csc(n1)C[C@H](NC(=O)[C@H]1[C@H](C)[C@@H]1C)C(=O)N1CCC[C@H](N1)C(=O)OCC1(CC1)C2 [Compound Z461, (1r,2R,3S)—N-((3′S,4′S,Z)-1′-ethyl-2′-(2-((S)-1-methoxyethyl)-5-(4-(p-tolyl)piperazin-1-yl)pyridin-3-yl)-5′,7′-dioxospiro[cyclopropane-1,10′-8-oxa-2(4,2)-thiazola-1(5,3)-indola-6(1,3)-pyridazinacycloundecaphan]-4′-yl)-2,3-dimethylcyclopropane-1-carboxamide] | 93 nM

The next lines start with the values.

IC50 | Compound
3.89 nM | CCn1c(-c2cc(C#CCN3CCCOCC3)cnc2[C@H](C)OC)c2c3cc(ccc31)-c1csc(n1)C[C@H](NC(=O)CC(C)(C)C)C(=O)N1CCC[C@H](N1)C(=O)OCC(C)(C)C2 (atropisomer, axis not shown; (Ra)) [Compound Z798, N-((6^3S,4S,Z)—(Ra)-1^2-(5-(3-(1,4-oxazepan-4-yl)propyn-1-yl)-2-((S)-1-methoxyethyl)pyridin-3-yl)-1^1ethyl-10,10-dimethyl-5,7-dioxo-6^1,6^2,6^3,6^4,6^5,6^6-hexahydro-1^1H-8-oxa-2(4,2)-thiazola-1(5,3)-indola-6(1,3)-pyridazinacycloundecaphane-4-yl)-3,3-dimethylbutanamide]
2.17 nM | CCn1c(-c2cc(C#CCN3CCN(C(C)=O)CC3)cnc2[C@H](C)OC)c2c3cc(ccc31)-c1csc(n1)C[C@H](Nc1nnc3cc(C)ccn13)C(=O)N1CCC[C@H](N1)C(=O)OCC(C)(C)C2 (atropisomer, axis not shown; (Ra)) [Compound Z981]
1.54 nM | CCn1c(-c2cc(C#CCN3CCN(C)S(=O)(=O)CC3)cnc2[C@H](C)OC)c2c3cc(ccc31)-c1csc(n1)C[C@H](Nc1nnc3cc(C)ccn13)C(=O)N1CCC[C@H](N1)C(=O)OCC(C)(C)C2 (atropisomer, axis not shown; (Ra)) [Compound Z1027, (6^3S,4S,Z)-1^1-ethyl-1^2-(Ra)-(2-((S)-1-methoxyethyl)-5-(3-(2-methyl-1,1-dioxido-1,2,5-thiadiazepan-5-yl)prop-1-yn-1-yl)pyridin-3-yl)-10,10-dimethyl-4-((7-methyl-[1,2,4]triazolo[4,3-a]pyridin-3-yl)amino)-6^1,6^2,6^3,6^4,6^5,6^6-hexahydro-1^1H-8-oxa-2(4,2)-thiazola-1(5,3)-indola-6(1,3)-pyridazinacycloundecaphane-5,7-dione]
78.1 nM | CCn1c(-c2cc(C#CCN3CCCOCC3)cnc2[C@H](C)OC)c2c3cc(ccc31)-c1csc(n1)C[C@H](NC(=O)[C@H]1[C@H](C)[C@@H]1C)C(=O)N1CCC[C@H](N1)C(=O)OCC(C)(C)C2 (atropisomer, axis not shown; (Sa)) [Compound Z547, (1r,2R,3S)—N-((6^3S,4S,Z)—(Sa)-1′-(5-(3-(1,4-oxazepan-4-yl)prop-1-yn-1-yl)-2-((S)-1-methoxyethyl)pyridin-3-yl)-1′-ethyl-10,10-dimethyl-5,7-dioxo-6^1,6^2,6^3,6^4,6^5,6^6-hexahydro-1^1H-8-oxa-2(4,2)-thiazola-1(5,3)-indola-6(1,3)-pyridazinacycloundecaphane-4-yl)-2,3-dimethylcyclopropane-1-carboxamide]
1.83 nM | CCn1c(-c2cc(C#CCN3CCCOCC3)cnc2[C@H](C)OC)c2c3cc(ccc31)-c1csc(n1)C[C@H](NC(=O)[C@H](C(C)C)N(C)S(C)(=O)=NC)C(=O)N1CCC[C@H](N1)C(=O)OCC(C)(C)C2 (mixture of isomers) [Compound Z912, (2S)—N-((6^3S,4S,Z)-1^2-(5-(3-(1,4-oxazepan-4-yl)prop-1-yn-1-yl)-2-((5)-1-methoxyethyl)pyridin-3-yl)-1^1-ethyl-10,10-dimethyl-5,7-dioxo-6^1,6^2,6^3,6^4,6^5,6^6-hexahydro-1^1H-8-oxa-2(4.2)-thiazola-1(5,3)-indola-6(1,3)-pyridazinacycloundecaphane-4-yl)-2-(N,N-dimethylmethylsulfonimidoyl)-3-methylbutanamide]

Same assay, conditions: NCI-H441 cells, 3 h compound incubation, HTRF p-ERK T202/Y204; read-out: H441 p-ERK IC50

IC50 | Compound
3.35 nM | CCn1c(-c2cc(C#CCN3CC4CCC(C3)N4C(C)=O)cnc2[C@H](C)OC)c2c3cc(ccc31)-c1csc(n1)C[C@H](Nc1nnc3cc(C)ccn13)C(=O)N1CCC[C@H](N1)C(=O)OCC(C)(C)C2 (atropisomer, axis not shown; (Ra)) [Compound Z1014, (6^3S,4S,Z)-1^2-(5-(3-(8-acetyl-3,8-diazabicyclo[3.2.1]octan-3-yl)prop-1-yn-1-yl)-(Ra)-2-((S)-1-methoxyethyl)pyridin-3-yl)-1^1-ethyl-10,10-dimethyl-4-((7-methyl-[1,2,4]triazolo[4,3-a]pyridin-3-yl)amino)-6^1,6^2,6^3,6^4,6^5,6^6-hexahydro-1^1H-8-oxa-2(4,2)-thiazola-1(5,3)-indola-6(1,3)-pyridazinacycloundecaphane-5,7-dione]
5.46 nM | CCn1c(-c2cc(C#CCN3CCCOCC3)cnc2[C@H](C)OC)c2c3cc(ccc31)-c1csc(n1)C[C@H](Nc1nnc3cc(Br)ccn13)C(=O)N1CCC[C@H](N1)C(=O)OCC(C)(C)C2 [Compound Z960, (6-S,4S,Z)—(R4)-1^2-(5-(3-(1,4-oxazepan-4-yl)prop-1-yn-1-yl)-2-((S)-1-methoxyethyl)pyridin-3-yl)-4-((7-bromo-[1,2,4]triazolo[4,3-a]pyridin-3-yl)amino)-1^1-ethyl-10,10-dimethyl-6^1,6^2,6^3,6^4,6^5,6^6-hexahydro-1^1H-8-oxa-2(4,2)-thiazola-1(5,3)-indola-6(1,3)-pyridazinacycloundecaphane-5,7-dione]
